Results: patent US8048825B2, “Haloalkylsulfonanilide derivatives or salt thereof, herbicide comprising the derivatives as active ingredient, and use of the herbicide” (Nihon Nohyaku Co., Ltd., priority 2006, dated 2011)

Assays:
Scirpus juncoides [1] = test: Herbicidal effect on paddy field weeds of post-emergence stage (Post), Test Example 2; type: in vivo; details: one-leaf stage, 1000 g/ha as active ingredient, examined after 21 days
How it was run: (§1)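 Post-emergence paddy test: formulated compound added to 5 cm standing water at 1000 g/ha a.i. when weeds reached one-leaf stage in clay loam pots in greenhouse. Growth inhibition rated 21 days later versus untreated control on a 0 (0%) to 5 (100%) scale.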

Scirpus juncoides [2] = test: Herbicidal efficacy on paddy field weeds of pre-emergence stage (Pre), Test Example 1; type: in vivo; details: 1000 g/ha as active ingredient, examined after 21 days
How it was run: (§2)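 Pre-emergence paddy test: 1000 g/ha active ingredient, formulated and water-diluted, dropped onto 5 cm floodwater one day after sowing both weeds in clay loam. After 21 days in greenhouse, inhibition relative to untreated control rated on 0 (0%) to 5 (100%) scale.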

Lindernia procumbens [3] = test: as above; type: in vivo; details: 1000 g/ha as active ingredient, examined after 21 days
How it was run: as §2

[4] = system: transplanted paddy-rice (rice species: Nihonbare); test: Test of phytotoxicity on transplanted paddy-rice, Test Example 3; type: in vivo; details: two-leaf stage seedlings, 1000 g/ha as active ingredient, applied 5 days after transplantation, examined after 21 days
Text: Criteria for herbicidal efficacy (growth inhibiting degree) and phytotoxicity. • 5 . . . 100% herbicidal effect, phytotoxicity. • 4 . . . 90%-99% herbicidal effect, phytotoxicity. • 3 . . . 70%-89% herbicidal effect, phytotoxicity. • 2 . . . 40%-69% herbicidal effect, phytotoxicity. • 1 . . . 1%-39% herbicidal effect, phytotoxicity. • 0 . . . 0% herbicidal effect, phytotoxicity.
75 cm^2 plastic pots were filled with the soil (clay loam) and filled with water depth of 5 cm and 2 rice plant seedlings (rice species: Nihonbare) at two-leaf stage were transplanted therein. They were brought up in a greenhouse and, after five days from the transplantation, predetermined effective dosage (1000 g/ha in terms of active ingredient) of formulations comprising a compound of the present invention as an active ingredient was applied to the pot water. Then, they were brought up in a greenhouse and the phytotoxicity was examined after 21 days from the treatment by comparing with the result of an untreated group according to the criteria of Test Example 1. In the table, “-” means that the test was not performed.

Echinochloa crus-galli = test: Herbicidal effect on paddy field weeds of post-emergence stage (Post), Test Example 2; type: in vivo; details: one-leaf stage, 1000 g/ha as active ingredient, examined after 21 days
How it was run: as §1

Lindernia procumbens [5] = test: as above; type: in vivo; details: one-leaf stage, 1000 g/ha as active ingredient, examined after 21 days
How it was run: as §1

Row | Compound | Scirpus juncoides post (herbicidal effect) (Scirpus juncoides [1]) | melting point | Scirpus juncoides pre (herbicidal effect) (Scirpus juncoides [2]) | Lindernia procumbens pre (herbicidal effect) (Lindernia procumbens [3]) | Rice (phytotoxicity) [4] | Echinochloa crus-galli post (herbicidal effect) (Echinochloa crus-galli) | Lindernia procumbens post (herbicidal effect) (Lindernia procumbens [5])
1 | CC1(C)COC(=S)N(Cc2ccccc2NS(=O)(=O)C(F)(F)F)C1 [Compound No. 1-34, 5,5-dimethyl-3-[2-(trifluoromethanesulfonylamino)benzyl]-[1,3]-oxazinan-2-thione] | 4 (90%-99% herbicidal effect, phytotoxicity) | 129.9 °C | 4 (90%-99% herbicidal effect, phytotoxicity) | 4 (90%-99% herbicidal effect, phytotoxicity) |  |  | 
2 | COC(=O)N(c1ccccc1CN1CC(C)(C)COC1=S)S(=O)(=O)C(F)(F)F [Compound No. 1-35, 5,5-dimethyl-3-(2-[N-(methoxycarbonyl)-N-(trifluoromethanesulfonyl)amino]benzyl)-[1,3]-oxazinane-2-thione] | 4 (90%-99% herbicidal effect, phytotoxicity) |  | 4 (90%-99% herbicidal effect, phytotoxicity) | 4 (90%-99% herbicidal effect, phytotoxicity) | 2 (40%-69% herbicidal effect, phytotoxicity) |  | 
3 | O=C1OC(c2ccccc2)CCN1Cc1ccccc1NS(=O)(=O)C(F)(F)F (stereo not shown) [Compound No. 1-239, 6-phenyl-3-[2-(trifluoromethanesulfonylamino)benzyl]-[1,3]-oxazinan-2-one] | 4 (90%-99% herbicidal effect, phytotoxicity) | 152 °C |  | 5 (100% herbicidal effect, phytotoxicity) |  |  | 
4 | CCCOC(=O)N(c1ccccc1CN1CCCOC1=O)S(=O)(=O)C(F)(F)F [Compound No. 1-4, 3-{2-[N-(propoxycarbonyl)-N -(trifluoromethanesulfonyl)amino]benzyl)-[1,3]-oxazinan-2-one] | 4 (90%-99% herbicidal effect, phytotoxicity) |  | 4 (90%-99% herbicidal effect, phytotoxicity) | 4 (90%-99% herbicidal effect, phytotoxicity) | 3 (70%-89% herbicidal effect, phytotoxicity) |  | 
5 | CC(C)COC(=O)N(c1ccccc1CN1CCC(C)COC1=O)S(=O)(=O)C(F)(F)F (stereo not shown) [Compound No. 2-28, 3-(2-[N-(isobutoxycarbonyl)-N-(trifluoromethanesulfonyl)amino]benzyl)-6-methyl-[1,3]-oxazepan-2-one] | 4 (90%-99% herbicidal effect, phytotoxicity) |  | 4 (90%-99% herbicidal effect, phytotoxicity) | 4 (90%-99% herbicidal effect, phytotoxicity) | 3 (70%-89% herbicidal effect, phytotoxicity) |  | 
6 | CCOCN(c1ccccc1CN1CCC(c2ccccc2)OC1=O)S(=O)(=O)C(F)(F)F (stereo not shown) [Compound No. 1-248, 6-phenyl-3-{2-[N-(ethoxymethyl)-N-(trifluoromethanesulfonyl)amino]benzyl)-[1,3]-oxazinan-2-one] |  | 115.6 °C |  |  |  |  | 
7 | CCC1(C(C)C)CCN(Cc2ccccc2NS(=O)(=O)C(F)(F)F)C(=O)O1 (racemic) [Compound 1-450] | 4 (90%-99% herbicidal effect, phytotoxicity) |  | 5 (100% herbicidal effect, phytotoxicity) | 5 (100% herbicidal effect, phytotoxicity) |  | 4 (90%-99% herbicidal effect, phytotoxicity) | 5 (100% herbicidal effect, phytotoxicity)
8 | CCOC(=O)N(c1ccccc1CN1CCC(C)(C2(C)CC2)OC1=O)S(=O)(=O)C(F)(F)F (stereo not shown) [Compound 1-373] | 4 (90%-99% herbicidal effect, phytotoxicity) |  | 5 (100% herbicidal effect, phytotoxicity) | 5 (100% herbicidal effect, phytotoxicity) |  | 4 (90%-99% herbicidal effect, phytotoxicity) | 5 (100% herbicidal effect, phytotoxicity)
9 | CC(C)(C)C1(C)CCN(Cc2ccccc2NS(=O)(=O)C(F)(F)F)C(=O)O1 (stereo not shown) [Compound 1-327] | 4 (90%-99% herbicidal effect, phytotoxicity) |  | 5 (100% herbicidal effect, phytotoxicity) | 5 (100% herbicidal effect, phytotoxicity) |  | 4 (90%-99% herbicidal effect, phytotoxicity) | 5 (100% herbicidal effect, phytotoxicity)
10 | CC(C)(C)COC(=O)N(c1ccccc1CN1CCC(C)(C2CC2)OC1=O)S(=O)(=O)C(F)(F)F (stereo not shown) [Compound 1-131] | 4 (90%-99% herbicidal effect, phytotoxicity) |  | 4 (90%-99% herbicidal effect, phytotoxicity) | 4 (90%-99% herbicidal effect, phytotoxicity) |  | 4 (90%-99% herbicidal effect, phytotoxicity) | 4 (90%-99% herbicidal effect, phytotoxicity)
11 | CCCCCOC(=O)N(c1ccccc1CN1CCC(C)(C)OC1=O)S(=O)(=O)C(F)(F)F [Compound 1-52] | 4 (90%-99% herbicidal effect, phytotoxicity) |  | 4 (90%-99% herbicidal effect, phytotoxicity) | 4 (90%-99% herbicidal effect, phytotoxicity) |  | 4 (90%-99% herbicidal effect, phytotoxicity) | 4 (90%-99% herbicidal effect, phytotoxicity)
12 | CCOC(=O)N(c1ccccc1CN1CCC(C)(c2ccccc2C)OC1=O)S(=O)(=O)C(F)(F)F (stereo not shown) [Compound 1-406] | 4 (90%-99% herbicidal effect, phytotoxicity) |  | 5 (100% herbicidal effect, phytotoxicity) | 5 (100% herbicidal effect, phytotoxicity) |  | 5 (100% herbicidal effect, phytotoxicity) | 5 (100% herbicidal effect, phytotoxicity)
13 | CCOC(=O)N(c1ccccc1CN1CC(C)(C)COC1=S)S(=O)(=O)C(F)(F)F [Compound 1-36] | 4 (90%-99% herbicidal effect, phytotoxicity) |  | 4 (90%-99% herbicidal effect, phytotoxicity) | 4 (90%-99% herbicidal effect, phytotoxicity) |  | 4 (90%-99% herbicidal effect, phytotoxicity) | 4 (90%-99% herbicidal effect, phytotoxicity)
